Patent US10131659B2, “Iodonium analogs as inhibitors of NADPH oxidases and other flavin dehydrogenases; formulations thereof; and uses thereof” (priority 2014, dated 2018)
Like-named read-outs stand apart in the source and are kept apart here.

Tests used:
Type in all cases: cell-based
[1] = target: T1, NOX1/A1/O1 (Homo sapiens, UniProt Q9Y5S8); experiment: NOX1-dependent ROS production, luminescence assay for O2.- in HEK293 cells expressing the NOX1 complex; conditions: for IC50 / IC50 toward NOX1: exposure for 30 min
T1 construct: expressed in transfected cells; host or cells: HEK293

[2] = test system: HT-29 human colon cancer cells; experiment: Clonogenic assay, HT-29 cells
Description: Several iodonium analog compounds were analyzed for inhibition of HT-29 growth using a clonogenic assay performed as described in Doroshow et al Biochem. Biophys. Res. Commun. 135: 330-335, 1986.

[3] = target: T2, NOX2 (Homo sapiens, UniProt P04839); experiment: NOX2-dependent ROS production, luminescence assay for O2.- in differentiated HL-60 cells; conditions: exposure for 30 min
T2 construct: fully differentiated HL-60 cells expressing active NOX2; endogenous in cells; host or cells: differentiated HL-60

[4] = target: T3, NOX4 (Homo sapiens, UniProt Q9NPH5); experiment: NOX4-dependent H2O2 production, Amplex Red assay in reconstituted HEK293 cells; conditions: for IC50 / IC50 toward NOX4: exposure for 30 min
T3 construct: expressed in transfected cells; host or cells: HEK293
T3 sequence (Q9NPH5 1-578): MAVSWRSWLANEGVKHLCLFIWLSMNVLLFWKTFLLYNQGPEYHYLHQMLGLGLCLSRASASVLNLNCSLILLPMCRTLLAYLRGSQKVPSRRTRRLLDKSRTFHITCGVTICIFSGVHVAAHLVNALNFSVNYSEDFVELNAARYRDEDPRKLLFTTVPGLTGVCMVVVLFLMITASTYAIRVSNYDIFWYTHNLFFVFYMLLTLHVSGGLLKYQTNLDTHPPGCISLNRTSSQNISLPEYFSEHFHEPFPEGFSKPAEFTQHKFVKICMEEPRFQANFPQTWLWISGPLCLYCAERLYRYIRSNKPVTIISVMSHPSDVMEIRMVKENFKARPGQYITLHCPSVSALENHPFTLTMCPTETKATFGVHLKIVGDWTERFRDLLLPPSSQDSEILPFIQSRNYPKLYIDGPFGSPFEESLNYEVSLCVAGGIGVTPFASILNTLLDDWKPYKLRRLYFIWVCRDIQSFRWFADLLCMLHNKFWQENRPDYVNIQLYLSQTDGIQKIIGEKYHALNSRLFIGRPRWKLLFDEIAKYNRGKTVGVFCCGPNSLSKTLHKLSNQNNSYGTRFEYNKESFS
T3 sequence (P13498 2-195 partner limits assumed): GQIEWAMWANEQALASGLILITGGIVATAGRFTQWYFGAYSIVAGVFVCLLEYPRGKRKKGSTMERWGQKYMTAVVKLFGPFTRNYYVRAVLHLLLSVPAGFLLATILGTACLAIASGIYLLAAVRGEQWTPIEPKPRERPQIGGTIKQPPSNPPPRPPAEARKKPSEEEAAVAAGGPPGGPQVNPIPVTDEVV
Description: (§1) H2O2 was measured by Amplex Red assay to determine NOX4 or Duox2 activity in fully reconstituted HEK293 cells. The method conducted was similar to the approach disclosed in Jaquet et al in Brit J. Pharmacology 164: 507-520, 2011 using somewhat different cell models for the NOX isoforms and we studied Duox2 in our own cell model.

[5] = target: T4, NOX5 (Homo sapiens, UniProt Q96PH1); experiment: NOX5-dependent ROS production, luminescence assay for O2.- in UACC257 melanoma cells; conditions: exposure for 30 min
T4 sequence (Q96PH1 1-765): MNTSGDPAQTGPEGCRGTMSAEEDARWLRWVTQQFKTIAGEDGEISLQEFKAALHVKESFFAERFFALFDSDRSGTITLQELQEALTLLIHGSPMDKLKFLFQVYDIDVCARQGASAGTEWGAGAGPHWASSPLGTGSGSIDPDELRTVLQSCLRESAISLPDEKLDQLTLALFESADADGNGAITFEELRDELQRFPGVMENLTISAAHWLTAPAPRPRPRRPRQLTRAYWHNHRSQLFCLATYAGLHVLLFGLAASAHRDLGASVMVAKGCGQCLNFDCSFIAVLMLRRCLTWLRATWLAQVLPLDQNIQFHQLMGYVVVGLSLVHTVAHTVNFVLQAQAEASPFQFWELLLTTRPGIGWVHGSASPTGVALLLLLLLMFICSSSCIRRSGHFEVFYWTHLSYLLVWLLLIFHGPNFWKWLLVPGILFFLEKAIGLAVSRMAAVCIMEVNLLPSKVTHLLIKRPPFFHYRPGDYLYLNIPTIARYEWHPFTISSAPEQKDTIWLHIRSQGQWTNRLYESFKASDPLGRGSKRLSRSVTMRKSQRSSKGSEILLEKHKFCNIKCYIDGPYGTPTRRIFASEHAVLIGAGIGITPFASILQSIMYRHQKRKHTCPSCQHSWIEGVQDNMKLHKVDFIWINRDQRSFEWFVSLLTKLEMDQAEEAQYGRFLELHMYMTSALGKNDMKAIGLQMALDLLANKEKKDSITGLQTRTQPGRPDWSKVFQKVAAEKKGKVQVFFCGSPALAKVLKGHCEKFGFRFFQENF

[6] = target: DUOX2/A2 (Homo sapiens, UniProt Q9NRD8); experiment: DUOX2-dependent H2O2 production, Amplex Red assay in reconstituted HEK293 cells
DUOX2/A2, sequence (Q9NRD8 26-1548): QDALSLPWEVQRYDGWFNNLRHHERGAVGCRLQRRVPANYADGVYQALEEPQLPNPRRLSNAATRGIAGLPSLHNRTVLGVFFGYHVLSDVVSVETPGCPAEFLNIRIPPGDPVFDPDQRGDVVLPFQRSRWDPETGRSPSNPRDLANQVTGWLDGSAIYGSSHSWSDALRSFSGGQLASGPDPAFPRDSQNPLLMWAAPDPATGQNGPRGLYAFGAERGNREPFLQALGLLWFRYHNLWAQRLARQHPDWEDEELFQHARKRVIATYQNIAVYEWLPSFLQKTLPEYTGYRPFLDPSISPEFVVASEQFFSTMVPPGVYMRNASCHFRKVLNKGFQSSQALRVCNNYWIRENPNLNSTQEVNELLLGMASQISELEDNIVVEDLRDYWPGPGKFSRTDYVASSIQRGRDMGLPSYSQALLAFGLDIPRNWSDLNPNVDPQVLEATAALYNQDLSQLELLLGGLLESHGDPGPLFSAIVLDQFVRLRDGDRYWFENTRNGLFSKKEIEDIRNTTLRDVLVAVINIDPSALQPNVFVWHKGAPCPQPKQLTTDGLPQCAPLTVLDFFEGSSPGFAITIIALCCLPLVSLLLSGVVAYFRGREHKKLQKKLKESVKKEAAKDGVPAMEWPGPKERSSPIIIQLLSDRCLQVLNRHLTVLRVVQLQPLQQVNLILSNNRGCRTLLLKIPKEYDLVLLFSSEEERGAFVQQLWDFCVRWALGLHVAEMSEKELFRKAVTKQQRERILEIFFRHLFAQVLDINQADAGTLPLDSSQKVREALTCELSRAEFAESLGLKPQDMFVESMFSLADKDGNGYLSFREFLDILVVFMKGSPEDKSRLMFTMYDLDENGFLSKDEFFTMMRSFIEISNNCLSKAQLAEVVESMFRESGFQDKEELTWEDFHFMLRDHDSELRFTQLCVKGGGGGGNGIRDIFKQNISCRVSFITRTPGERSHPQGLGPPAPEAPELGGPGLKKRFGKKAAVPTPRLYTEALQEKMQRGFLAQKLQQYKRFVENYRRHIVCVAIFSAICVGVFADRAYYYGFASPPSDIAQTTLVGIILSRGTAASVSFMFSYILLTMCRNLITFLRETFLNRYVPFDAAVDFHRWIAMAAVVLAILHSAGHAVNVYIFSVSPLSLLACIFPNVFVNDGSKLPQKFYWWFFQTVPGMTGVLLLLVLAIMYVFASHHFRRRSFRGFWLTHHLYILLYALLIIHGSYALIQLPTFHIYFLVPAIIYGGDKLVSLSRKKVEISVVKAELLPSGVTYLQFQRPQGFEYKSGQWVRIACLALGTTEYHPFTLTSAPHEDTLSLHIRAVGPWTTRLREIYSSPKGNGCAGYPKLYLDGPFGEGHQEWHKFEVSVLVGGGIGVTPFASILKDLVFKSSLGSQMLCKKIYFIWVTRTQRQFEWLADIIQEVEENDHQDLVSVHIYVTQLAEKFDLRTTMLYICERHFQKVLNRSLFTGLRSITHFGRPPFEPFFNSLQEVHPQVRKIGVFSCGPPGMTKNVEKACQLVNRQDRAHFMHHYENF
DUOX2/A2, sequence (Q1HG44 whole entry partner): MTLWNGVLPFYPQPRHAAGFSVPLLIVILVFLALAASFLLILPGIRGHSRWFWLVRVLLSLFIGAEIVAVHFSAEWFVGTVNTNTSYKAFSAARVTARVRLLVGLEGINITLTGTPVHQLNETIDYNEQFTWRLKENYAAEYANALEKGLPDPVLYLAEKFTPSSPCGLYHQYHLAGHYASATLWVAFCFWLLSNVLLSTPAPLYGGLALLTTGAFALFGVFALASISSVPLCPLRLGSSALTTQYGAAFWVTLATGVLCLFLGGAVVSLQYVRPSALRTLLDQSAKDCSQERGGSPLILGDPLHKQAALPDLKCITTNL
Description: as §1

[7] = test system: HT-29 human colon cancer cells; experiment: Growth inhibition of HT-29 cells by MTT assay; conditions: for IC50: read-out: IC50, HT-29 human colon cancer cell growth
Description: The compounds were analyzed for growth inhibition of HT-29 human colon cancer cells by MTT assay: 48 hr, drug exposures over several orders of concentration. The MTT assay was performed as described in Wu et al J. Immunology 190: 1859-1872, 2013.

[8] = test system: ROS production in HT-29 human colon cancer cells; experiment: ROS production in HT-29 cells (chemiluminescence / DCF analytical cytometry)
[9] = test system: HT-29 human colon cancer cells; experiment: HT-29 cell cycle progression; conditions: for G1 (%) / G2 (%) / S phase (%): 24 hours
Description: Several iodonium analog compounds were analyzed for effect on HT-29 cell cycle progression.

[10] = test system: NOX1 mRNA expression; experiment: NOX1 expression in HT-29 cells by quantitative RT-PCR; conditions: HT-29 human colon cancer cells
[11] = 3-5 independent experiments, read-out: IC50 ± SE, NOX1/A1/O1 HEK 293
[12] = Homo sapiens, HT-29, 6 h, read-out: IC50 (±SE) clonogenic survival, 6 hrs drug exposure, 6 hrs exposure
[13] = 3-5 independent experiments, read-out: IC50 ± SE, NOX2 HL-60
[14] = 3-5 independent experiments, read-out: IC50 ± SE, NOX4 HEK293
[15] = 3-5 independent experiments, read-out: IC50 ± SE, NOX5 UACC-257
[16] = 3-5 independent experiments, read-out: IC50 ± SE, DUOX2/A2 HEK 293
[17] = Homo sapiens, HT-29, 2 h, read-out: IC50 (±SE) clonogenic survival, 2 hrs drug exposure, 2 hrs exposure
[18] = Homo sapiens, HT-29, 240 h, read-out: IC50 clonogenic survival, 10 days drug exposure, 10 days exposure

SMILES: [Cl-].c1csc([I+]c2cccs2)c1 [Compound 1, di-2-thienyliodonium chloride, reference compound]
- IC50 [1, 11]: 3410 ± 1600 nM
- IC50 clonogenic survival, 2 hrs drug exposure (result in words) ([2]; 2 hrs exposure): No Inhibition
- IC50 [2, 12]: 113000 ± 92300 nM
- IC50 [3, 13]: 1500 ± 1110 nM
- IC50 [4, 14]: 32300 ± 13800 nM
- IC50 [5, 15]: 3780 ± 2140 nM

SMILES: O=[N+]([O-])c1ccc2c(c1)[I+]c1cc([N+](=O)[O-])ccc1-2.[Br-] [Compound 15, Dibenziodolium, 3,7-dinitro-, bromide]
- IC50 [1, 11]: 357 ± 268 nM
- IC50 toward NOX1 [1]: low nM
- potency for inhibition of DUOX2 compared with parent compound (DPI) [6]: at least a log more potent
- IC50 [6, 16]: 225 ± 24 nM
- IC50 ([7]; Homo sapiens, HT-29, 48 h): 202 nM
- ROS production in HT-29 cells ([8]; treatment for 24 hr with 100 nM): significantly decreased
- cytotoxic or cytostatic character [2]: cytotoxic
- exposure required to inhibit growth / cell reproduction [2]: only a short exposure at nM concentrations
- IC50 [2, 17]: 180 ± 157 nM
- IC50 [2, 12]: 116 ± 108 nM
- IC50 [2, 18]: < 10 nM
- IC50 [3, 13]: 310 ± 53 nM
- IC50 toward NOX2 [3]: low nM
- IC50 [4, 14]: 139 ± 143 nM
- IC50 toward NOX4 [4]: low nM
- IC50 [5, 15]: 208 ± 129 nM
- IC50 toward NOX5 [5]: low nM
- effect on cell cycle progression [9]: major block in cell cycle progression in S and G2 phases
- G1 (%) ([9]; 250 nM): 23.9%
- G2 (%) ([9]; 250 nM): 47.4%
- S phase (%) ([9]; 250 nM): 28.7%
- G1 (%) ([9]; 500 nM): 16.6%
- G2 (%) ([9]; 500 nM): 25.2%
- S phase (%) ([9]; 500 nM): 58.2%

SMILES: Brc1ccc2c(c1)[I+]c1cc(Br)ccc1-2.[Br-] [Compound 16, Dibenziodolium, 3,7-dibromo-, bromide]
- potency as inhibitor of NOX1 compared with DPI [1]: more potent
- IC50 [1, 11]: 70 ± 57 nM
- IC50 toward NOX1 [1]: low nM
- IC50 [6, 16]: 4140 ± 1720 nM
- IC50 ([7]; Homo sapiens, HT-29, 48 h): 50 nM
- ROS production in HT-29 cells ([8]; treatment for 24 hr with 10 nM): significantly decreased
- exposure required to inhibit growth / cell reproduction [2]: intermediate
- IC50 [2, 17]: 1200 ± 1100 nM
- IC50 [2, 12]: 536 ± 635 nM
- IC50 [2, 18]: < 10 nM
- IC50 [3, 13]: 127 ± 20 nM
- IC50 toward NOX2 [3]: low nM
- IC50 [4, 14]: 161 ± 153 nM
- IC50 toward NOX4 [4]: low nM
- IC50 [5, 15]: 44 ± 21 nM
- IC50 toward NOX5 [5]: low nM
- G1 (%) ([9]; 250 nM): 64.5%
- G2 (%) ([9]; 250 nM): 7.9%
- S phase (%) ([9]; 250 nM): 28.1%
- G1 (%) ([9]; 500 nM): 57.2%
- G2 (%) ([9]; 500 nM): 6.5%
- S phase (%) ([9]; 500 nM): 36.2%

SMILES: COC(=O)c1ccc2c(c1)[I+]c1ccccc1-2.Cc1ccc(S(=O)(=O)[O-])cc1 [Compound 21, Dibenz[b,d]iodolium, 3-(methoxycarbonyl)-, salt with 4-methyl-benzenesulfonic acid (1:1)]
- IC50 [1, 11]: 249 ± 116 nM
- IC50 toward NOX1 [1]: low nM
- IC50 [6, 16]: 1990 ± 1690 nM
- IC50 ([7]; 48 hr drug exposure): 148 nM
- ROS production in HT-29 cells ([8]; treatment for 24 hr with 10 nM): significantly decreased
- IC50 ([2]; read-out: IC50 (±SE) clonogenic survival, 2 hrs drug exposure, 2 hrs exposure): ~7000 nM
- IC50 ([2]; read-out: IC50 (±SE) clonogenic survival, 6 hrs drug exposure, 6 hrs exposure): 1300 ± 300 nM
- IC50 [3, 13]: 71 ± 15 nM
- IC50 toward NOX2 [3]: low nM
- potency as inhibitor of NOX4 compared with DPI [4]: more potent
- IC50 [4, 14]: 127 ± 110 nM
- IC50 toward NOX4 [4]: low nM
- IC50 [5, 15]: 55 ± 20 nM
- IC50 toward NOX5 [5]: low nM

SMILES: CN(C)Cc1ccc2c(c1)[I+]c1cc(CN(C)C)ccc1-2.[I-] [Compound 24, Dibenziodolium, 3,7-bis[(dimethylamino)methyl]-, iodide]
- IC50 [1, 11]: 2520 ± 2410 nM
- IC50 ([7]; Homo sapiens, HT-29, 48 h): 87 nM
- inhibition of ROS production ([8]; HT-29 human colon cancer cells): no significant inhibition
- inhibition of NOX1 expression [10]: no significant inhibition
- IC50 [3, 13]: 4380 ± 999 nM
- IC50 [4, 14]: 35400 ± 42700 nM
- IC50 [5, 15]: 2090 ± 903 nM

SMILES: O=[N+]([O-])c1cccc2c1-c1c(cccc1[N+](=O)[O-])[I+]2.[Br-] [Compound 49, 1,9-dinitrodibenzo[b,d]iodolium bromide]
- IC50 ([1]; IC50 ± SE, NOX1/A1/O1 HEK 293, 3-5 independent experiments): 1020 ± 361 nM
- IC50 toward NOX1 [1]: much higher
- IC50 [6]: 773 ± 362 nM
- inhibition of DUOX2, as worded in text [6]: submicromolar
- potency for inhibition of DUOX2 compared with parent compound (DPI) [6]: at least a log more potent
- Growth inhibition of NOX1-containing colon cancer cells versus the other analogs ([7]; even at higher concentrations): much less
- IC50 ([3]; IC50 ± SE, NOX2 HL-60, 3-5 independent experiments): 1470 ± 308 nM
- IC50 toward NOX2 [3]: much higher
- IC50 ([4]; IC50 ± SE, NOX4 HEK293, 3-5 independent experiments): 5530 ± 2680 nM
- IC50 toward NOX4 [4]: much higher
- IC50 ([5]; IC50 ± SE, NOX5 UACC-257, 3-5 independent experiments): 229 ± 123 nM
- IC50 toward NOX5 [5]: submicromolar
